Data on 1 compound can be found in ChEMBL document CHEMBL4311997, “Discovery of a potent histone deacetylase (HDAC) 3/6 selective dual inhibitor” (Eur J Med Chem, 2019).

The source made the active and inactive calls. No cut-off for these calls is given here.

Data set [1] relates to MDA-MB-231. In words: Antiproliferative activity against human MDA-MB-231 cells incubated for 72 hrs by MTT assay. Format: functional, cell-based. The note with it: MDA-MB-231, 72 h.
A short description of data set [2]: Effective permeability of the compound at pH 7.4 measured after 6 hrs by PAMPA assay. It counts as ADME. The conditions noted are these: read-out: Peff. (In PAMPA a lipid-coated filter parts donor from acceptor wells.)
The subject of data set [3] is MDA-MB-231. In words: Induction of apoptosis in human MDA-MB-231 cells assessed as necrotic cells at 9 uM incubated for 48 hrs by Annexin V-FITC/PI staining by flow cytometric analysis (reference value: 15%). Format: functional. Background: A flow cytometer gives signals particle by particle.
The next data set relates to MOLM-14. The experiment in a line: Antiproliferative activity against human MOLM14 cells incubated for 48 hrs by CellTiter-Glo luminescent cell viability assay. Format: functional, cell-based. The conditions noted are these: MOLM-14, 48 h. (In general: Cellular ATP, detected with luciferase, serves as a proxy for viable cell number.)
Data set [4] concerns MDA-MB-231. The experiment in a line: Induction of apoptosis in human MDA-MB-231 cells assessed as early apoptotic cells at 3 uM incubated for 48 hrs by Annexin V-FITC/PI staining by flow cytometric analysis (reference value: 5%). Format: functional.
For data set [5], the system named is MDA-MB-231. The experiment in a line: Induction of apoptosis in human MDA-MB-231 cells assessed as late apoptotic cells at 3 uM incubated for 48 hrs by Annexin V-FITC/PI staining by flow cytometric analysis (reference value: 3%). Format: functional.
For data set [6], the species on record is Homo sapiens. The experiment in a line: Inhibition of human MLL1 complex at 100 uM using core histone as substrate incubated for 1 hr in presence of [3H]-SAM by filter binding method relative to control.
Data set [7] concerns the target Polyamine deacetylase HDAC10 (Homo sapiens, UniProt Q969S8). The experiment in a line: Inhibition of human HDAC10 using Acetyl-Lys (trifluoroacetyl)-AMC) as substrate incubated for 2 hrs by fluorescence assay.
For a further data set, the system named is KMS-12-BM. The experiment in a line: Antiproliferative activity against human KMS-12-BM cells incubated for 48 hrs by CellTiter-Glo luminescent cell viability assay. Format: functional, cell-based.
The species named for data set [8] is Homo sapiens. In words: Inhibition of human EZH2 complex at 100 uM using core histone as substrate incubated for 1 hr in presence of [3H]-SAM by filter binding method relative to control.
A further data set deals with Plasmodium falciparum. The experiment in a line: microbe, parasite or virus in culture. It counts as functional, organism-based. The conditions noted are these: 3D7, 48 h.
A short description of data set [9]: Selectivity index, ratio of EC50 for human MDA-MB-231 cells to IC50 for ring stage Plasmodium falciparum 3D7. Also on record: reference not given here. Format: functional.
The species named for data set [10] is Homo sapiens. In words: Selectivity ratio of IC50 for human HDAC3 to IC50 for human HDAC6.
Data set [11] relates to MDA-MB-231. The experiment in a line: Induction of apoptosis in human MDA-MB-231 cells assessed as viable cells at 6 uM incubated for 48 hrs by Annexin V-FITC/PI staining by flow cytometric analysis (reference value: 77%). Format: functional. The note with it: MDA-MB-231, 48 h, read-out: Activity.
A short description of data set [12]: Intrinsic clearance in female rat liver microsomes at 3 uM preincubated for 5 mins followed by NADPH addition and measured up to 45 mins by LC-MS/MS analysis. Format: ADME, Microsome.
Another data set deals with TAMH. The experiment in a line: Cytotoxicity against TAMH cells incubated for 24 hrs by CellTiter-Glo Cell Viability Assay. Format: cell-based. The note with it: Mus musculus.
For data set [13], the system named is MDA-MB-231. The experiment in a line: Induction of apoptosis in human MDA-MB-231 cells assessed as late apoptotic cells at 6 uM incubated for 48 hrs by Annexin V-FITC/PI staining by flow cytometric analysis (reference value: 3%). It counts as functional.
Data set [14] deals with T1, Protein deacetylase HDAC6 (Homo sapiens, UniProt Q9UBN7).
T1 sequence (Q9UBN7 whole entry): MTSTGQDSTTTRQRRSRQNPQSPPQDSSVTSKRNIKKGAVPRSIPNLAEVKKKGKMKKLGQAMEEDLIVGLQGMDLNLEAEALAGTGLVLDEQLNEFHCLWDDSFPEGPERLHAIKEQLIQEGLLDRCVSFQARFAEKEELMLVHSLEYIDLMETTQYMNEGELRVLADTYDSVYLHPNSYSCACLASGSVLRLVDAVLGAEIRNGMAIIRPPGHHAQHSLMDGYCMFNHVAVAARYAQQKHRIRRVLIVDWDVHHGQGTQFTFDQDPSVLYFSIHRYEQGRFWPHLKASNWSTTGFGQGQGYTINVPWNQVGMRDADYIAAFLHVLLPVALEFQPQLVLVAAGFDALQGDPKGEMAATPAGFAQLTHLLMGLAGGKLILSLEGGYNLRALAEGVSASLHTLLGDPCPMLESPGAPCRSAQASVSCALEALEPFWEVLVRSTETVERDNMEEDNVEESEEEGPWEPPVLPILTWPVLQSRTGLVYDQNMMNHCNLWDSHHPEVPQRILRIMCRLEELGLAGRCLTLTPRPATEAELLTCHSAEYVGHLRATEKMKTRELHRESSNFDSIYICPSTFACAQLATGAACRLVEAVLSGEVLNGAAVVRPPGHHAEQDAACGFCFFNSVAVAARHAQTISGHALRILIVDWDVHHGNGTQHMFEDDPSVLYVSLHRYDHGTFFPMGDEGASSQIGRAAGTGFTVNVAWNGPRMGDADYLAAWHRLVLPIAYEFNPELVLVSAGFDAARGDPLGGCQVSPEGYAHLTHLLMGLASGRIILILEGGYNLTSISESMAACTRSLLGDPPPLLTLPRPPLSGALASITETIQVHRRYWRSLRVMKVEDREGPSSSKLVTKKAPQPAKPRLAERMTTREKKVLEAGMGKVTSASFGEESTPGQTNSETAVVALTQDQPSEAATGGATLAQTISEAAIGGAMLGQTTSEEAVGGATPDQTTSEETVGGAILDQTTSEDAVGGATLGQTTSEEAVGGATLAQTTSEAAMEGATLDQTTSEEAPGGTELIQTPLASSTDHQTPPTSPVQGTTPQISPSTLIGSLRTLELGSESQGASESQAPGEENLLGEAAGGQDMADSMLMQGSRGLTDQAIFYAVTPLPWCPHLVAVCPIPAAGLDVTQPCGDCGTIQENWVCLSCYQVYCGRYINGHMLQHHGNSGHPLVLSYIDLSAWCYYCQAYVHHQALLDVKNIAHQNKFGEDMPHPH
In words: Inhibition of human HDAC6 using Arg-His-Lys-Lys (Ac) as substrate incubated for 2 hrs by fluorescence assay.

Data set [15] can be described thus: Genotoxicity in Salmonella typhimurium TA100 in presence of S9 fraction incubated for 48 hrs by Ames test relative to control. Format: toxicity, subcellular. The note with it: salmonella enterica subsp. enterica serovar typhimurium, s9, 48 h.
The next data set deals with OPM-2. In words: Antiproliferative activity against human OPM2 cells incubated for 48 hrs by CellTiter-Glo luminescent cell viability assay. It counts as functional, cell-based. The conditions noted are these: OPM-2, 48 h.
The next data set relates to NCI-H929. The experiment in a line: Antiproliferative activity against human NCI-H929 cells incubated for 48 hrs by CellTiter-Glo luminescent cell viability assay. The conditions noted are these: NCI-H929, 48 h. Format: functional, cell-based.
Data set [16] concerns the target Protein arginine N-methyltransferase 1 (Homo sapiens) (UniProt Q99873). In words: Inhibition of human PRMT1 at 100 uM using histone H4 as substrate incubated for 1 hr in presence of [3H]-SAM by filter binding method relative to control.
Data set [17] relates to MDA-MB-231. In words: Induction of apoptosis in human MDA-MB-231 cells assessed as viable cells at 3 uM incubated for 48 hrs by Annexin V-FITC/PI staining by flow cytometric analysis (reference value: 77%). The conditions noted are these: MDA-MB-231, 48 h, read-out: Activity. It counts as functional.
The nature of data set [18]: Intrinsic clearance in mouse liver microsomes at 3 uM preincubated for 5 mins followed by NADPH addition and measured up to 45 mins by LC-MS/MS analysis. The note with it: read-out: CLH. It counts as ADME, Microsome.

Sequence of Protein arginine N-methyltransferase 1 (Homo sapiens) (Q99873 whole entry, looked up): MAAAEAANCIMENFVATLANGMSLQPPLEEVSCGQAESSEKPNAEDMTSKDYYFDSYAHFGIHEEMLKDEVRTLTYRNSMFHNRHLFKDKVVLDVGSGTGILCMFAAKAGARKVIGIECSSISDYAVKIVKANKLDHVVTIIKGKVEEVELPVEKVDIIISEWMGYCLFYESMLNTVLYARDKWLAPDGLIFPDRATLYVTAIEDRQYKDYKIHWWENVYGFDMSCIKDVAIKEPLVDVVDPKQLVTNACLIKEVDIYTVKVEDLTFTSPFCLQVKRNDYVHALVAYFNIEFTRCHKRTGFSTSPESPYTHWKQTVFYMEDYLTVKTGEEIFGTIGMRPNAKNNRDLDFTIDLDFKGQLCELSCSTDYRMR
Sequence of Polyamine deacetylase HDAC10 (Q969S8 whole entry): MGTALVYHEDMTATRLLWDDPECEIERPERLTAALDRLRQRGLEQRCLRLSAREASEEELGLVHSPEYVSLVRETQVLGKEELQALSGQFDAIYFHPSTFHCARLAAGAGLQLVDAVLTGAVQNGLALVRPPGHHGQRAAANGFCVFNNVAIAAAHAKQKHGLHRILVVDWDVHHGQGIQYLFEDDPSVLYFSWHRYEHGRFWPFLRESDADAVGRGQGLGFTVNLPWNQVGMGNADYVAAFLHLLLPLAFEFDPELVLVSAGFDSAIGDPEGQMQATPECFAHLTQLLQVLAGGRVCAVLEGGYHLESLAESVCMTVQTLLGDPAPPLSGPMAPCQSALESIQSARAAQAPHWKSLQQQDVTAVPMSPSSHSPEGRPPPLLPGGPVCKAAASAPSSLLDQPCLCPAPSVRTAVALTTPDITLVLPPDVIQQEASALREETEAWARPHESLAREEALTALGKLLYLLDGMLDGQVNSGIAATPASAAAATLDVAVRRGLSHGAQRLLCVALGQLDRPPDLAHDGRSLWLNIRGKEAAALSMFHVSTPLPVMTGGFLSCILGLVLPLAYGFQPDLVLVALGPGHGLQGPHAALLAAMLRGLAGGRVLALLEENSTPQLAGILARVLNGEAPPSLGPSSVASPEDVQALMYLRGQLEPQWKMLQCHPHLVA
Description for Plasmodium falciparum: Antimalarial activity against ring stage Plasmodium falciparum 3D7 incubated for 48 hrs by Hoechst 33342 staining based fluorescence based assay

A word on the EC50: it is the concentration at which the effect is half-maximal. By inhibition is commonly meant the relative decrease from the control value, in per cent. As a reminder, the IC50 is the concentration that gives 50% inhibition. Take `COc1ccc(CN2CCC(Nc3nc(Nc4ccc(NC(=O)CCCCCCC(=O)NO)cc4)nc4cc(OC)c(OC)cc34)CC2)cc1`: the EC50 in the data set with MDA-MB-231 [1] is 6.3 µM; in the data set with MOLM-14, 2800 nM; in the data set on KMS-12-BM, 7.6 µM; in the data set on TAMH it was 29 µM; in the data set with OPM-2, 7.9 µM; in the data set on NCI-H929, 4.6 µM. Further, the Papp at 6 h in data set [2] came to 21.8 ×10⁻⁶ cm/s. Besides, the Activity in the data set on MDA-MB-231 [3] was 8%; with MDA-MB-231 [4] it was 23%; in the data set on MDA-MB-231 [5] it was 15%; with MDA-MB-231 [13] it was 15%; in [15], “Non-Toxic”. Moreover, the figures for the inhibition in the data set filed under Homo sapiens [6] and in the data set filed under Homo sapiens [8] were 42% and 27%, respectively. The IC50 in data set [7] stood at 2690 nM; in the data set with Plasmodium falciparum it was 145 nM; in [14], 2.57 nM. Further, the “Selectivity Index” value in data set [9] worked out at 43. The Ratio IC50 in the data set filed under Homo sapiens [10] is 13. Moreover, the viability at 6 µM in the data set on MDA-MB-231 [11] turned out to be 52%. The microsomal CLint at 3 µM in data set [12] stood at 22.3 µL/min/mg; in [18] it was 52.2 µL/min/mg. For the same compound, in [16], the inhibition entry is “inactive”. Moreover, the viability at 3 µM with MDA-MB-231 [17] worked out at 48%.
